Reference: patent publication US8604075B2, “Methods and compositions for improving cognitive function” (The Johns Hopkins University, priority 2008, dated 2013)

Key:
[1] = tested on: Age-Impaired (AI) Long-Evans rats; assay: Morris Water Maze (MWM) retention trial, spatial memory of aged-impaired rats; format: in vivo, rat; conditions: retention trial 24 hours after last training trial
Experimental: FIG. 2 depicts the effects of administering levetiracetam on the spatial memory retention of six aged-impaired rats (AI) in a Morris Water Maze (MWM) test. Three treatment conditions were employed: vehicle control, levetiracetam (5 mg/kg/day) and levetiracetam (10 mg/kg/day). The AI rats were trained for two consecutive days, with a one-time treatment prior to the training trials per day. 24 hours later, the AI rats were tested. The time the AI rats, 24 hours after treatment with the different conditions and two days of training, spent swimming in the target quadrant or the target annulus in a memory retention trial is used as a measure of spatial memory retention. The target quadrant refers to the quadrant of the maze (which is a circular pool) where the escape platform is placed during the training trials. The target annulus refers to the exact location of the escape platform during the training trials.
The MWM apparatus consists of a large, circular pool (diameter 1.83 m; height, 0.58 m) filled with water (27° C.) that is made opaque through the addition of non-toxic pigment or some other substance. In the typical “hidden platform” version of the test, rats are trained to find a camouflaged white escape platform (height, 34.5 cm) that is positioned in the center of one quadrant of the maze about 1.0 cm below the water surface. This platform can be retracted to the bottom of the tank or raised to its normal position from outside the maze during behavioral testing. The location of the platform remains constant from trial to trial. […] The behavior of a rat in the pool is recorded by a camera that is suspended 2.5 m above the center of the pool. […]
The MWM protocol is optimized for sensitivity to the effects of aging on cognition and for measures of reliable individual differences within the aged population of out-bred Long-Evans rats (Gallagher et al. Behav. Neurosci. 107:618-626, (1993)). […] At the completion of the protocol using the hidden platform, rats are assessed for cue learning using the visible platform. […]

[2] = tested on: aged-impaired (AI) rats; assay: Radial Arm Maze (RAM) task with one-hour delay, spatial memory retention of aged-impaired rats; format: in vivo, rat; conditions: 30-40 minutes before trial, ten AI rats
Experimental: FIG. 3 depicts the effects of administering levetiracetam on the spatial memory retention of ten aged-impaired rats (AI) in an eight-arm Radial Arm Maze (RAM) test. Six treatment conditions were employed: vehicle control, levetiracetam (1.25 mg/kg/day), levetiracetam (2.5 mg/kg/day), levetiracetam (5 mg/kg/day), levetiracetam (10 mg/kg/day) and levetiracetam (20 mg/kg/day). In the RAM task used, there was a one-hour delay between presentation of a subset of arms (5 arms available and 3 arms blocked) and completion of the eight-arm win-shift task (eight arms available). Rats were pre-treated 30-40 minutes before daily trials with a one-time drug/control treatment. The number of errors made by the rats after the delay was used as a measure of spatial memory retention. Errors were defined as instances when rats entered an arm from which food had already been retrieved in the pre-delay component of the trial or when rats re-visited an arm in the post-delay session that had already been visited. […]
The effects of levetiracetam on the spatial memory retention of aged-impaired (AI) rats were assessed in a Radial Arm Maze (RAM) behavioral task using vehicle control and five different dosage levels of levetiracetam (1.25 mg/kg/day, 2.5 mg/kg/day, 5 mg/kg/day, 10 mg/kg/day and 20 mg/kg/day). […]

[3] = 100 mg/kg/day, chronic subcutaneous administration; cited from earlier work
[4] = tested on: memory-impaired aged rats; conditions: chronic subcutaneous administration, cited from earlier work

Row | SMILES | time spent in the target quadrant, performance compared with vehicle ([1]; 5 mg/kg/day i.p.) | time spent in the target annulus ([1]; 10 mg/kg/day i.p.) | time spent in the target quadrant ([1]; 10 mg/kg/day i.p., vehicle approximately 25%) | average no. of errors ± standard error of the mean (SEM) ([2]; 5 mg/kg/day i.p., vehicle 2.00±0.42, p=0.057) | average no. of errors ± SEM ([2]; 10 mg/kg/day i.p., vehicle 2.00±0.42, p=0.042) | blood total valproate level [3] | treatment of age-related cognitive impairment ([4]; 50 mg/kg/day) | performance in a memory test ([4]; 100 mg/kg/day)
1 | CC[C@@H](C(N)=O)N1CCCC1=O [levetiracetam, (2S)-2-(2-oxopyrrolidin-1-yl) butanamide] | did not significantly improve | effectivness of the 10 mg/kg/day levetiracetam treatment was also seen | approximately 35 % of total swimming time | 0.75±0.32 | 0.80±0.27 | – | – | –
2 | CCCC(CCC)C(=O)O [sodium valproate, 2-propylpentanoate] | – | – | – | – | – | 10 μg/ml plasma | not effective | significantly improved
